Measured values reported in patent US11234979B2, “Heteroaryl compounds as muscarinic M1 receptor positive allosteric modulators” (SUVEN LIFE SCIENCES LIMITED, priority 2017, dated 2022).

How the values were obtained:
[1] = Rodent pharmacokinetic study; format: in vivo, Male Wistar rats; settings: male, Wistar, rat, plasma
Description: Rodent Pharmacokinetic Study
Male Wistar rats (260±50 grams) were used as experimental animals. Animals were housed individually in polypropylene cage. Two days prior to study, male Wistar rats were anesthetized with isoflurane for surgical placement of jugular vein catheter. Rats were randomly divided for oral (3 mg/kg) and intravenous (i.v) (1 mg/kg) dosing (n=3/group) and fasted overnight before oral dosing (p.o.). However, rats allocated to intravenous (i.v.) dosing food and water was provided ad libitum.
At pre-determined point, blood was collected through jugular vein and replenished with an equivalent volume of normal saline. Collected blood was transferred into a labeled eppendorf tube containing 10 μL of heparin as an anticoagulant. Typically blood samples were collected at following time points: 0.08, 0.25, 0.5, 1, 2, 4, 6, 8, and 24 hours post dose. Blood was centrifuged at 4000 rpm for 10 minutes. Plasma was separated and stored frozen at −80° C. until analysis. The concentrations of the test compounds were quantified in plasma by qualified LC-MS/MS method using suitable extraction technique. The test compounds were quantified in the calibration range around 1-1000 ng/mL in plasma. Study samples were analyzed using calibration samples in the batch and quality control samples spread across the batch.
Pharmacokinetic parameters Cmax, AUCt, T1/2, clearance and bioavailability (F) were calculated by non-compartmental model using standard non-compartmental model by using Phoenix WinNonlin 6.0.2 or 6.0.3 version Software package.

[2] = tested on: hippocampal theta oscillations; assay: Theta modulation in dorsal hippocampus of anesthetized rats in combination with donepezil; format: in vivo, Male Wistar rats; settings: anesthetized rat, Example 32 1 mg/kg
From the text: Evaluation of Theta Modulation in Dorsal Hippocampus of Anesthetized Male Wistar
Male Wistar rats (240-320 g) were anesthetized by Intraperitoneal administration of urethane (1.2 to 1.5 g/kg) for implantation of a catheter in the left femoral vein. The animal was placed in a stereotaxic frame for implanting an electrode (stainless steel wire, Plastics One) into the dorsal hippocampus (AP: −3.8 mm; ML: +2.2 mm; DV: −2.5 mm; Paxinos and Watson, 2004). Bipolar stimulating electrode (untwisted stainless steel wires, separated by 0.75-1.0 mm at their tips, Plastics One) was implanted in the Nucleus Pontis Oralis (NPO; AP: −7.8 mm; ML: 1.8 mm; DV: −6.0 mm; Paxinos and Watson, 2004). Additionally one electrode was implanted into the cerebellum which served as a reference. Hippocampal θ rhythm was evoked via a 6-s electrical stimulation train (20-160 μA, 0.3-ms pulse duration, 250 Hz) delivered to the NPO at a rate of 0.01 trains/s with a Grass S88 stimulator and PSIU6 stimulus isolation unit (Grass Medical Instruments, Quincy, Mass.). EEG was recorded at a rate of 1000 Hz using Ponemah (Version 5.2) software and stored for off-line analysis using NeuroScore (Version 3.0). Baseline amplitude level was achieved by using the current required to elicit […] to 50% of the maximal amplitude under control conditions. After the stabilization period of one hour, baseline recording was done for 30 min followed by the treatment of vehicle or Example 32 (1 mg/kg, i.v.).
Power in the θ rhythm frequency in the stimulation period during the 30-min baseline period was calculated and the % changes in these measures post treatment were calculated. […] Statistical significance was considered at a p value less than 0.05.

Cn1cc(-c2ccc(Cc3cc(C(=O)N[C@H]4CCCC[C@@H]4O)n4ncccc34)cc2)cn1 [Example 32, N-(cis-1S,2S-2-Hydroxycyclohexyl)-5-[4-(1-methyl-1H-pyrazol-4-yl)-benzyl]-pyrrolo [1,2-b]pyridazine-7-carboxamide]
AUC(0-t) ([1]; iv, i.v. 1 mg/kg): 3260 ± 802 ng·h/mL | half-life ([1]; iv, i.v. 1 mg/kg): 3.2 ± 1.2 h | clearance ([1]; iv, i.v. 1 mg/kg): 5.2 ± 1.4 mL/min/kg | bioavailability ([1]; oral 3 mg/kg vs i.v. 1 mg/kg, bioavailability): 50 ± 17% | AUC(0-t) ([1]; oral 3 mg/kg): 4900 ± 1640 ng·h/mL | Cmax ([1]; oral 3 mg/kg): 650 ± 224 ng/mL | half-life ([1]; oral 3 mg/kg): 3.2 ± 0.4 h | Mean area under the curve values (AUC) of θ power change, combination versus donepezil alone ([2]; i.v. + donepezil 0.3 mg/kg): significantly higher compared to donepezil alone | effect on θ power, combination treatment versus donepezil alone ([2]; i.v. + donepezil 0.3 mg/kg): significantly higher than the donepezil alone | θ power levels ([2]; i.v. in combination with donepezil 0.3 mg/kg): significant increase
